Values quoted from earlier work, collected in patent publication US5688981A, “Ethylenediaminetriacetic acid and N-acyl ethylenediaminetriacetic acid silver chelating agents and surfactants” (Hampshire Chemical Corp., priority 1996, dated 1997).

Key:
[1] = background

Structure (SMILES) | concentration with propensity towards protein precipitation (protein) | toxicity on oral administration [1]
O=C([O-])CC(O)(CC(=O)[O-])C(=O)[O-].[Ag+].[Ag+].[Ag+] [silver citrate] | 10^-4 M | –
[Ag][I] [silver iodide] | 10^-4 M | –
CC(O)C(=O)[O-].[Ag+] (centres unmarked) [silver lactate] | 10^-4 M | –
O=[N+]([O-])[O-].[Ag+] [silver nitrate] | – | can cause severe gastroenteritis which may be fatal
[Ag+].[Ag+].[O-2] [silver oxide] | 10^-4 M | –
